{"source": "patent US20070248694A1", "about": "“Anti-inflammatory properties of a standardized extract from Euphorbia hirta (PM-251) activity and for treating conditions of inflammation” (PhytoMyco Research Corporation, priority 2006, published 2007)", "format_in_all_cases": "in vivo, Wister strain - Albino rats", "key": {"[1]": {"system": "Turpentine induced arthritis", "assay": "Turpentine induced arthritis", "settings": "100 mg/kbw oral single dose", "experimental": "Dose Levels • Control: One ml of 1% gum acacia • Standard: 100 mg/kbw (kilogram body weight) in acute models and sub-acute models. • T1:100 mg/kbw and T2:200 mg/kbw in Carrageenin and Turpentine models and T1: […] All drugs (dose) were given only once a day. 2. Method of performance study • Main assays: The test article, the standard and control were administered: a. Carrageenin induced rat paw edema: The respective drug was administered in single dose through mouth 1 hour before the administration of phlogistic agent. The method used comprises of the study of the acute inflammatory reaction induced by injecting the phlogistic agent carrageenin into the subplantar surface of the right hindpaw of the rat. […] Lesser the mean paw volume more was the anti-inflammatory potential and vice versa. • b. Turpentine induced arthritis: The respective drug was administered in single dose through mouth 1 hour before the administration of phlogistic agent. This is one of the commonly employed models to induce arthritis in the rat; 0.01 ml turpentine was injected to the right knee joint. The maximum diameter of the right knee joint was measured at ‘0’ hour and at the end of ‘4’ hours after the injection with the help of screw gauge and the difference between ‘0’ hour and ‘4’ hour reading gave the actual arthritis. Lesser the mean diameter right knee joint more the anti-inflammatory potential and vice versa. • c. Formalin induced experimental peritonitis: The respective drug was administered in single dose through mouth 1 hour before the administration of phlogistic agent by injecting 1 ml of 1% formalin in to the peritoneal cavity. […] Lesser the mean exudates more is the anti-inflammatory potential and vice versa. • d. Cotton wool pellet induced granuloma: The respective drug was administered by mouth in single dose one hour prior to the cotton pellet implantation on the first day and subsequently every day for next five days. The extent of formation of foreign body granuloma (granulation tissue) is the main criterion for evaluating anti-inflammatory activity. […]"}, "[2]": {"system": "Carrageenin induced rat paw edema", "assay": "Carrageenin induced rat paw edema", "settings": "100 mg/kbw oral single dose", "experimental": "Dose Levels • Control: One ml of 1% gum acacia • Standard: 100 mg/kbw (kilogram body weight) in acute models and sub-acute models. • T1:100 mg/kbw and T2:200 mg/kbw in Carrageenin and Turpentine models and T1: […] All drugs (dose) were given only once a day. 2. Method of performance study • Main assays: The test article, the standard and control were administered: a. Carrageenin induced rat paw edema: The respective drug was administered in single dose through mouth 1 hour before the administration of phlogistic agent. The method used comprises of the study of the acute inflammatory reaction induced by injecting the phlogistic agent carrageenin into the subplantar surface of the right hindpaw of the rat. […] Lesser the mean paw volume more was the anti-inflammatory potential and vice versa. • b. Turpentine induced arthritis: The respective drug was administered in single dose through mouth 1 hour before the administration of phlogistic agent. This is one of the commonly employed models to induce arthritis in the rat; 0.01 ml turpentine was injected to the right knee joint. The maximum diameter of the right knee joint was measured at ‘0’ hour and at the end of ‘4’ hours after the injection with the help of screw gauge and the difference between ‘0’ hour and ‘4’ hour reading gave the actual arthritis. […]"}, "[3]": {"system": "Cotton pellet induced granuloma", "assay": "Cotton wool pellet induced granuloma", "settings": "100 mg/kbw oral once daily", "experimental": "(§1) Dose Levels • Control: One ml of 1% gum acacia • Standard: 100 mg/kbw (kilogram body weight) in acute models and sub-acute models. • T1:100 mg/kbw and T2:200 mg/kbw in Carrageenin and Turpentine models and T1: 200 mg/kbw and T2:400 mg/kbw in Cotton pellet granuloma and Formalin induced arthritis model. […] All drugs (dose) were given only once a day. 2. Method of performance study • Main assays: The test article, the standard and control were administered: a. Carrageenin induced rat paw edema: The respective drug was administered in single dose through mouth 1 hour before the administration of phlogistic agent. The method used comprises of the study of the acute inflammatory reaction induced by injecting the phlogistic agent carrageenin into the subplantar surface of the right hindpaw of the rat. […] Lesser the mean paw volume more was the anti-inflammatory potential and vice versa. • b. Turpentine induced arthritis: The respective drug was administered in single dose through mouth 1 hour before the administration of phlogistic agent. […] The maximum diameter of the right knee joint was measured at ‘0’ hour and at the end of ‘4’ hours after the injection with the help of screw gauge and the difference between ‘0’ hour and ‘4’ hour reading gave the actual arthritis. […]"}, "[4]": {"system": "Formalin induced peritonitis", "assay": "Formalin induced experimental peritonitis", "settings": "100 mg/kbw oral single dose", "experimental": "as §1"}}}
{"smiles": "COc1ccc2c(c1)c(CC(=O)O)c(C)n2C(=O)c1ccc(Cl)cc1", "note": "[Indomethacin]", "values": [{"measurement": "% inhibition with respect to control", "setting": "[1]", "value": 84.95, "unit": "%"}, {"measurement": "Inhibitory Potency Values", "setting": "[1]", "value": 0.85}, {"measurement": "Mean volume (in mm.) (±) SEM", "setting": "[1]; right knee joint diameter, difference 0 h to 4 h", "value": "1.55 ± 0.19", "unit": "mm"}, {"measurement": "Inhibitory Potency Values", "setting": "[2]", "value": 3.98}, {"measurement": "Mean volume (in ml.) (±) SEM", "setting": "[2]; paw edema volume, difference 0 h to 4 h", "value": "0.88 ± 0.52", "unit": "mL"}, {"measurement": "Inhibitory Potency Values", "setting": "[3]", "value": 2.38}, {"measurement": "Mean volume (in mg.) (±)", "setting": "[3]; granulation tissue weight on dried cotton pellet, sixth day", "value": "6.54 ± 0.36", "unit": "mg"}, {"measurement": "Inhibitory Potency Values", "setting": "[4]", "value": 1.38}, {"measurement": "Mean volume (in ml.) (±) SEM", "setting": "[4]; peritoneal exudate volume after 4 hours", "value": "0.57 ± 0.14", "unit": "mL"}]}
